From ChEMBL document CHEMBL2074353, “Reversal of the human and murine multidrug-resistance phenotype with megestrol acetate” (Cancer Chemother Pharmacol, 1994) come the findings set out here.

Structures are written as SMILES.

For series [1], the target named is T1, ATP-dependent translocase ABCB1 (Homo sapiens, UniProt P08183). In words: TP_TRANSPORTER: increase in Doxorubicin intracellular accumulation (Doxorubicin: […], Megestrol acetate: 50 uM) in HCT-116/VM46 cells, flow cytometry. It counts as functional, cell-based. Conditions: hct-116/vm46, 50 µM.
T1 sequence (P08183 whole entry): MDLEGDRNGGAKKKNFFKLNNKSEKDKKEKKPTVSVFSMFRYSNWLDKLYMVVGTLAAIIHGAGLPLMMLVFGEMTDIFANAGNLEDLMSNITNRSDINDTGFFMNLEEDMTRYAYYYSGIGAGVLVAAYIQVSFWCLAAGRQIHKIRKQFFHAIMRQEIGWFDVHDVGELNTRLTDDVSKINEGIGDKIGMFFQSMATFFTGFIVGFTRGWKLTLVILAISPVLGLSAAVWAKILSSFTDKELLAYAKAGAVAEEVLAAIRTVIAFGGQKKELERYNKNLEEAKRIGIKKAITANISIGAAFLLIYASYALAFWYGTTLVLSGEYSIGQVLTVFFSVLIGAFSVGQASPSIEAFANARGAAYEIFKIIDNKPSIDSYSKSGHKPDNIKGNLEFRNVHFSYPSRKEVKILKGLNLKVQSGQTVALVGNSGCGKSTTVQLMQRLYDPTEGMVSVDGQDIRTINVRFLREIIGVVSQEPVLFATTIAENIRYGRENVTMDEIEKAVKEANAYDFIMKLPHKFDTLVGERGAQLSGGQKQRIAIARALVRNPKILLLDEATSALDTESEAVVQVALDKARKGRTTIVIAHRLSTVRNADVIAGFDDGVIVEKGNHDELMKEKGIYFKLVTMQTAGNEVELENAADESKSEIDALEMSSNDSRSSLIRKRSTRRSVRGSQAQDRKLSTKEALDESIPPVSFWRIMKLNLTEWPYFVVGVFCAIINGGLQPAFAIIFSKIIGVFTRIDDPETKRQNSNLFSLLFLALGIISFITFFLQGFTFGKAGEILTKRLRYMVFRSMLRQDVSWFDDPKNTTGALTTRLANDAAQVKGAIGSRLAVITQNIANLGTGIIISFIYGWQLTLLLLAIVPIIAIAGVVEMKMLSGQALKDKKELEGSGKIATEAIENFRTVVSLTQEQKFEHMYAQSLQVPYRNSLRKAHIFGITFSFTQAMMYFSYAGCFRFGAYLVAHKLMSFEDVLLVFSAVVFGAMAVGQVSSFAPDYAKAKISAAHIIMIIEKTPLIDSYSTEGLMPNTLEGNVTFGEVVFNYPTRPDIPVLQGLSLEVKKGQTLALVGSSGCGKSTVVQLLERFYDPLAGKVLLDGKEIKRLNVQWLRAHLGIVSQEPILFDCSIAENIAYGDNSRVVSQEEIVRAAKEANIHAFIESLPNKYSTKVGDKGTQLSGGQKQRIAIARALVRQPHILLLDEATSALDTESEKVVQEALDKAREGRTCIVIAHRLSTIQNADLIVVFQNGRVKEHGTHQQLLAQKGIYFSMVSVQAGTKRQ
The target in series [2] is T1, ATP-dependent translocase ABCB1. Briefly: TP_TRANSPORTER: increase in Doxorubicin intracellular accumulation (Doxorubicin: […], Megestrol acetate: 25 uM) in MCF-7/ADR cells, flow cytometry. It counts as functional, cell-based. Conditions: nci/adr-res.

Consider `CC(=O)O[C@]1(C(C)=O)CC[C@H]2[C@@H]3C=C(C)C4=CC(=O)CC[C@]4(C)[C@H]3CC[C@@]21C` [MEGESTROL ACETATE], for which the Activity result in series [1] and in series [2] was “inhibitor [+]” each time.
